Reference: patent US20200405696A1, “INHIBITORS OF INDOLEAMINE 2,3-DIOXYGENASE AND/OR TRYPTOPHAN 2,3-DIOXYGENASE” (IDORSIA PHARMACEUTICALS LTD, priority 2018, published 2020)

What was measured:
[1] = biological target: T1, Recombinant full-length human IDO1 (Homo sapiens, UniProt P14902); experiment: IDO1 enzymatic assay (NFK quantified by LCMS); type: biochemical; details: 2 nM enzyme, 5 μM L-tryptophan, pH6.5, 30 minutes pre-incubation at RT; mean values when measured multiple times; read-out: hIDO activity (IC50 in nM)
T1 construct: Recombinant full-length human IDO1 with a N-terminal hexahistidine tag; hexahistidine (His6) (N); made in house; host or cells: E. coli
T1 sequence (P14902 whole entry): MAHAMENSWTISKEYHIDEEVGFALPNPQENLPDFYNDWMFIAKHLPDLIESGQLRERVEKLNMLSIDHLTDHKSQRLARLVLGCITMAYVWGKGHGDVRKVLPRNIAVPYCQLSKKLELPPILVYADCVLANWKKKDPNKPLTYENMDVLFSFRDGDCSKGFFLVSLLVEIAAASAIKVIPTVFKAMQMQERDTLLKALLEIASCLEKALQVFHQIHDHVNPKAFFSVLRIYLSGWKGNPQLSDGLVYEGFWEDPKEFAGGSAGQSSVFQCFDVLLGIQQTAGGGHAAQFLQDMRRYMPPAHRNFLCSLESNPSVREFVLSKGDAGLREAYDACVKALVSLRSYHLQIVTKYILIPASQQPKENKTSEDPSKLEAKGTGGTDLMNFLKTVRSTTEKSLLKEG
Method in brief: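 His-tagged human IDO1 (2 nM) in pH 6.5 phosphate buffer with ascorbate, methylene blue and catalase was preincubated with compound (10 μM–0.5 nM, 0.6% DMSO) for 30 min at RT. The reaction then ran with 5 μM L-Trp for 30 min. NFK was measured by LCMS against a d5-Trp standard, and IC50 was obtained by four-parameter fit.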

[2] = biological target: T2, Recombinant human TDO comprising amino acids 19-407 (Homo sapiens, UniProt P48775); experiment: TDO2 enzymatic assay (NFK quantified by LCMS); type: biochemical; details: 15 nM enzyme, 200 μM L-tryptophan, pH7, 30 minutes pre-incubation at RT; mean values when measured multiple times; read-out: hTDO activity (IC50 in nM)
T2 construct: Recombinant human TDO comprising amino acids 19-407 with a N-terminal hexahistidine tag; hexahistidine (His6) (N); made in house; host or cells: E. coli
T2 sequence (P48775 19-406 limits assumed): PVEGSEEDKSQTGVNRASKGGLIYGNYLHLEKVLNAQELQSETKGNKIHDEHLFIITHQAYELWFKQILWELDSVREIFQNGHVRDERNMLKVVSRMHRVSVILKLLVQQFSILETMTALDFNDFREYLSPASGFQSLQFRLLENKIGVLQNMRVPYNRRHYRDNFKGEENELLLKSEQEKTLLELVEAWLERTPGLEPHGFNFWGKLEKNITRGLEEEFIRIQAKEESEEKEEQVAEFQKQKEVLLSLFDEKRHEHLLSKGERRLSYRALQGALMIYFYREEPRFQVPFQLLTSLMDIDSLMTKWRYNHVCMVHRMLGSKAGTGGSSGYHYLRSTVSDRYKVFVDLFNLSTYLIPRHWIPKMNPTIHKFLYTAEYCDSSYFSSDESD
Method in brief: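 NFK formed over 30 min at RT from 200 μM L-tryptophan was measured by LCMS, normalized to d5-tryptophan, after compound (0.5 nM–10 μM, duplicates, 0.6% DMSO) was preincubated 30 min with 15 nM recombinant His-tagged TDO 19-407 in phosphate buffer pH 7. IC50 from four-parameter logistic fit; repeats averaged.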

Row | SMILES | IC50 [1] [nM] | IC50 [2] [nM]
1 | CC(C)C(=O)Nc1ccc(-n2cc(C(O)c3c(C4CC4)sc4cncn34)nn2)cc1Cl (racemic) [Example 284, rac-N-(2-Chloro-4-{4-[(2-cyclopropyl-imidazo[5,1-b]thiazol-3-yl)-hydroxy-methyl]-[1,2,3]triazol-1-yl}-phenyl)-isobutyramide] | 273 | > 10200
2 | CCc1sc2cncn2c1C(O)c1cn(-c2ccc(OC)cc2)nn1 (racemic) [Example 285, rac-(2-Ethyl-imidazo[5,1-b]thiazol-3-yl)-[1-(4-methoxy-phenyl)-1H-[1,2,3]triazol-4-yl]-methanol] | 7.91 | 6470
3 | COc1ccc(-n2cc(C(O)c3c(-c4ccc(F)cc4)sc4cncn34)nn2)cc1 (racemic) [Example 286, rac-[2-(4-Fluoro-phenyl)-imidazo[5,1-b]thiazol-3-yl]-[1-(4-methoxy-phenyl)-1H-[1,2,3]triazol-4-yl]-methanol] | 704 | > 10200
4 | COc1ccc(-n2cc(C(O)c3c(-c4ccccc4F)sc4cncn34)nn2)cc1 (racemic) [Example 287, rac-[2-(2-Fluoro-phenyl)-imidazo[5,1-b]thiazol-3-yl]-[1-(4-methoxy-phenyl)-1H-[1,2,3]triazol-4-yl]-methanol] | 88.8 | 8670
5 | COc1c(F)cc(-n2cc(C(O)c3c(C4CC4)sc4cncn34)nn2)cc1Cl (racemic) [Example 288, rac-[1-(3-Chloro-5-fluoro-4-methoxy-phenyl)-1H-[1,2,3]triazol-4-yl]-(2-cyclopropyl-imidazo[5,1-b]thiazol-3-yl)-methanol] | 15.1 | > 10200
6 | COc1ccc(-n2cc(C(O)c3c(C4CC4)sc4cncn34)nn2)cc1Cl (racemic) [Example 289, rac-[1-(3-Chloro-4-methoxy-phenyl)-1H-[1,2,3]triazol-4-yl]-(2-cyclopropyl-imidazo[5,1-b]thiazol-3-yl)-methanol] | 7.56 | > 10200
7 | COc1ccc(-n2cc(C(O)c3c(C4CC4)sc4cncn34)nn2)cc1Br (racemic) [Example 290, rac-[1-(3-Bromo-4-methoxy-phenyl)-1H-[1,2,3]triazol-4-yl]-(2-cyclopropyl-imidazo[5,1-b]thiazol-3-yl)-methanol] | 15.3 | > 10200
8 | COc1ccc(-n2cc(C(O)c3c(C4CC4)sc4cncn34)nn2)cc1I (racemic) [Example 291, rac-(2-Cyclopropyl-imidazo[5,1-b]thiazol-3-yl)-[1-(3-iodo-4-methoxy-phenyl)-1H-[1,2,3]triazol-4-yl]-methanol] | 41.1 | > 10200
9 | COc1ccc(-n2cc(C(O)c3c(C4CC4)sc4cncn34)nn2)c(F)c1Cl (racemic) [Example 292, rac-[1-(3-Chloro-2-fluoro-4-methoxy-phenyl)-1H-[1,2,3]triazol-4-yl]-(2-cyclopropyl-imidazo[5,1-b]thiazol-3-yl)-methanol] | 28.9 | > 10200
10 | C=C(C)c1sc2cncn2c1C(O)c1cn(-c2ccc(OCCC(C)(C)O)c(Cl)c2)nn1 (racemic) [Example 293, rac-4-(2-Chloro-4-{4-[hydroxy-(2-isopropenyl-imidazo[5,1-b]thiazol-3-yl)-methyl]-[1,2,3]triazol-1-yl}-phenoxy)-2-methyl-butan-2-ol] | 17.6 | > 10200
11 | COC(=O)c1cccc(Cn2cc(C(O)c3c(C4CC4)sc4cncn34)nn2)c1 (racemic) [Example 294, rac-3-{4-[(2-Cyclopropyl-imidazo[5,1-b]thiazol-3-yl)-hydroxy-methyl]-[1,2,3]triazol-1-ylmethyl}-benzoic acid methyl ester] | 35.8 | > 10200
12 | COc1ccc(-n2nnc(C(O)c3c(C4CC4)sc4cncn34)c2C)cc1Cl (racemic) [Example 295, rac-[1-(3-Chloro-4-methoxy-phenyl)-5-methyl-1H-[1,2,3]triazol-4-yl]-(2-cyclopropyl-imidazo[5,1-b]thiazol-3-yl)-methanol] | 6.63 | 8840
